Read-outs that look alike come from different tables or passages of the source.
Columns and labels:
[1] = tested on: SH-SY-5Y cells; assay: Determination of intracellular MG concentration after glucose treatment; format: cell-based, human; settings: 50 mM glucose three days, compound 500 μM
Protocol: Determination of Intracellular MG Concentration. SHSY5Y cells were seeded in a T150 flask and allowed to grow for 24 h. The next day, cells were treated with glucose (50 mM) in the presence and the absence of GSH or Ψ-GSH (500 μM). Cells without glucose treatment were used as a control. After 3 days of treatment, the cell pellet was collected and sonicated in 1 mL of PBS buffer to obtain cell lysates, which were derivatized as follows: 1 mL of cell lysate+0.2 mL 5 M HClO4+0.2 mL 10 mM 1,2 diaminobenzene+0.1 mL 1 μM 5-methylquinoxaline (internal std.)+0.5 mL water to 2 mL final volume. Samples were incubated at room temperature overnight and then centrifuged. The supernatant was passed through a C-18 SPE cartridge which had been prepared by flushing 2-4 mL of acetonitrile followed by 2-4 mL of 10 mM KH2PO4 (pH 2.4). After evaporation of the acetonitrile layer, the solid obtained was redissolved in 0.2 mL of 20% acetonitrile in 10 mM KH2PO4 (pH=2.4). The concentration of MG derivative, 2-methylquinoxaline, was measured using a Beckman Coulter Gold chromatography system. The column was Varian Microsorb-MV 300-5 25 cm C18 column (4.6 mm internal diameter and 5 μm particle diameter). The mobile phase was 80 vol % of 10 mM KH2PO4 and 20 vol % of HPLC grade acetonitrile. […]

[2] = tested on: SH-SY-5Y cells; assay: cells; format: cell-based; settings: for protection against Aβ toxicity: 10 μM, pretreatment 24 h; for protection against Aβ toxicity / length of cytoprotection against Aβ toxicity: 20 μM Aβ (1-42); for inhibition at 1000 µM: Homo sapiens, SH-SY5Y, SH-SY-5Y, compound 1 mM 24 h; for length of cytoprotection against Aβ toxicity: pretreatment of SH-SY-5Y cells
Protocol: (§1) Cytotoxicity Studies: Protection against β-amyloid 1-42 cytotoxicity in SH-SY-5Y cells was measured by standard MTT assays. SH-SY-5Y cells were seeded in 96-well plates at the density of 30,000 cells/well. After overnight incubation, the cells were exposed to GSH or Ψ-GSH at a concentration of 1 mM for 24 h at 37° C. After 24 h of incubation, the drug-containing medium was replaced with media containing 20 μM β-amyloid 1-42 peptide and the incubation was allowed to continue for additional 24 hours after the addition of the drugs. At the end of the incubation, 20 μL of MTT stock solution (5 mg/mL) was added to each well and incubated for 3 h at 37° C. The MTT reaction medium was discarded and the purple-blue MTT formazan crystals were dissolved by the addition of 100 μL of 0.1 N HCl in isopropanol. The optical density (OD), a reflection mitochondrial function of the viable cells, was read directly with a microplate reader (BioTek SynergyHT, VT, USA) at 580 nm and a reference wavelength of 680 nm. Concentration response graphs were generated for each drug using GraphPad Prism software (GraphPad Software, Inc., San Diego, Calif., USA). Results are expressed as mean percent inhibition of β-amyloid toxicity with the standard error of the mean. In another set of experiments, cells were preincubated with a glyoxalase I inhibitor, S-(p-bromobenzylglutathione) (1 mM) for 24 hours before addition of βamyloid1-42 peptide (20 μM).
as §1, with “Protection” for “Cytotoxicity Studies: Protection”, “against β-amyloid^1-42” for “against β-amyloid 1-42”, “cells/well. […]” for “cells/well. After overnight incubation, the cells were exposed to GSH or Ψ-GSH at a concentration of 1 mM for 24 h at 37° C.”, “μM β-amyloid^1-42” for “μM β-amyloid 1-42”, “20 μl,” for “20 μL”, “mean.” for “mean. In another set of experiments, cells were preincubated with a glyoxalase I inhibitor, S-(p-bromobenzylglutathione) (1 mM) for 24 hours before addition of βamyloid1-42 peptide (20 μM).”

[3] = Pharmacokinetic evaluation in plasma; format: in vivo, C57BL/6 mice; settings: single i.p. dose 500 mg/kg; for CL_F Clearance / absorption half-life / half-life / AUC / Cmax / Tmax: C57BL/6 mice, plasma; for absorption half-life / half-life / AUC / Cmax / Tmax: female, ip; for absorption half-life / half-life: C57BL/6, mouse, 500 mg/kg; for absorption half-life: read-out: K01 absorption half life (converted); for half-life: read-out: K10 elimination half life (converted); for AUC / Cmax / Tmax: mouse
Protocol: Pharmacokinetic Evaluation of Ψ-GSH. Eight weeks old C57BL/6 female mice (n=4 animals/time point) were given 500 mg/kg of GSH or Ψ-GSH in saline intraperitoneally. Blood samples were collected at […], 1, 2, 4, 8, 24 hr after the drug administration through retro-orbital bleeding into heparin-coated tubes. Blood was immediately centrifuged at 5000×g for 10 min at 4° C. The top plasma layer was transferred into a new tube and mixed with an equal volume of 5% sulfosalicylic acid in […] potassium phosphate buffer containing 1 mM EDTA disodium salt (pH 7.2). This was followed by centrifugation of samples at 8000×g for 10 min at 4° C. and analysis of thiol concentration. The derivatization reaction was realized utilizing 130 μL of the supernatant, 500 μL of Tris-HCl buffer 0.5 M, pH 8.9 and 350 μL of DTNB 10 mM in of K2HPO4 (0.5 M, pH 8.0). After 5 min in an ice bath, the reaction mixture was acidified by addition of 100 μL H3PO4 7 M and centrifuged at 3000×g for 10 min. Then, derivatized GSH or Ψ-GSH was filtered through a 0.22 μm membrane and 20 μL was injected in HPLC at 330 nm. HPLC analysis was carried out on a Beckman Coulter Gold HPLC system, controlled by a system controller (32 Karat workstation with PC). The HPLC conditions employed a Varian Microsorb column (C18, 5 μm, 4.6×250 mm) using solvent A [water containing 0.9% v/v formic acid] and solvent B [acetonitrile] with 1 mL/min flow rate and detected at 330 nm. Solvent B was increased from 0 to 30% in 9 min, then to 80% in 7 min, and held at 80% for an additional 4 min. The retention time for derivatized Ψ-GSH was 11.8 minutes.

[4] = then 20 μM Aβ1-42 24 h, read-out: % Inhibition of Cell Growth with Aβ1-42
[5] = without Aβ1-42, read-out: % Inhibition of Cell Growth without Aβ1-42

Row | SMILES | glucose-induced intracellular MG accumulation [1] | protection against Aβ toxicity [2] | inhibition at 1000 µM [2, 4] [%] | inhibition at 1000 µM [2, 5] [%] | length of cytoprotection against Aβ toxicity [2] | CL_F Clearance [3] [mL/min/kg] | absorption half-life [3] [min] | half-life [3] [min] | AUC [3] [µg·h/mL] | Cmax [3] [µg/mL] | Tmax [3] [min] | AUC relative to GSH [3] [fold] | Cmax relative to GSH [3] [fold] | Tmax relative to GSH [3] [fold]
1 | N[C@@H](CCC(=O)N[C@@H](CS)C(=O)NCC(=O)O)C(=O)O [GSH, Glutathione] | prevented glucose-induced intracellular MG accumulation | fully protected the cells | 12 | 0 | significant only until day 3 | 165.9 | 7.62 | 29.7 | 50.2 | 43.9 | 20.2 | – | – | –
2 | N[C@@H](CNC(=O)N[C@@H](CS)C(=O)NCC(=O)O)C(=O)O [Ψ-GSH, γ-Gla-Cys-Gly-OH] | prevented glucose-induced intracellular MG accumulation | fully protected the cells | 4 | 0 | five days | 31.15 | 10.3 | 73.6 | 267 | 110 | 34 | 5.3 | 2.5 | 3

Source: patent US9394338B2, “Glutathione analogs and uses thereof” (REGENTS OF THE UNIVERSITY OF MINNESOTA, priority 2011, dated 2016)
